Results as given in the supplement of paper PMC10883282.

How the values were obtained:
Test in all cases: relative viability vs DMSO control (72 h) (fraction); higher = more viable cells
[1] = system: G401
In short: (§1)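 Relative viability was measured with ATPLite and expressed as percent growth, averaged across up to triplicate wells. Sarcoma cell lines had been seeded in 384-well plates to reach 80–90% confluence, dosed after 24 h, and incubated 72 h at 37 °C, 5% CO2. All data were rescaled on a scale where 1 is full and 0 is none.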

[2] = system: HT1080
In short: as §1

[3] = system: KHOS-240S
In short: as §1

[4] = system: MES-SA
In short: as §1

[5] = system: RD-ES
In short: as §1

[6] = system: RD
In short: as §1

[7] = system: SK-ES-1
In short: as §1

[8] = system: SK-LMS-1
In short: as §1

[9] = system: SW1353
In short: as §1

[10] = system: SW982
In short: as §1

[11] = system: SYO-1
In short: as §1

[12] = system: VA-ES-BJ
In short: as §1

CO[C@@H]1[C@H](N(C)C(=O)c2ccccc2)C[C@H]2O[C@]1(C)n1c3ccccc3c3c4c(c5c6ccccc6n2c5c31)C(=O)NC4 [Midostaurin]
Conditions | relative viability
[1], 0.00017 µM | 0.948
[1], 0.00051 µM | 0.976
[1], 0.00152 µM | 0.98
[1], 0.00457 µM | 0.969
[1], 0.01372 µM | 0.953
[1], 0.04115 µM | 0.878
[1], 0.1235 µM | 0.854
[1], 0.3704 µM | 0.678
[1], 1.111 µM | 0.436
[1], 3.333 µM | 0.229
[1], 10 µM | 0.159
[2], 0.00017 µM | 1.01
[2], 0.00051 µM | 0.999
[2], 0.00152 µM | 1.007
[2], 0.00457 µM | 0.986
[2], 0.01372 µM | 1.04
[2], 0.04115 µM | 0.987
[2], 0.1235 µM | 0.9478
[2], 0.3704 µM | 0.716
[2], 1.111 µM | 0.406
[2], 3.333 µM | 0.31
[2], 10 µM | 0.288
[3], 0.00017 µM | 1.04
[3], 0.00051 µM | 1.04
[3], 0.00152 µM | 1.03
[3], 0.00457 µM | 1.04
[3], 0.01372 µM | 1.02
[3], 0.04115 µM | 0.937
[3], 0.1235 µM | 0.797
[3], 0.3704 µM | 0.536
[3], 1.111 µM | 0.256
[3], 3.333 µM | 0.143
[3], 10 µM | 0.09613
[4], 0.00017 µM | 0.87
[4], 0.00051 µM | 0.8799
[4], 0.00152 µM | 0.889
[4], 0.00457 µM | 0.885
[4], 0.01372 µM | 0.891
[4], 0.04115 µM | 0.866
[4], 0.1235 µM | 0.818
[4], 0.3704 µM | 0.408
[4], 1.111 µM | 0.251
[4], 3.333 µM | 0.139
[4], 10 µM | 0.0904
[5], 0.00017 µM | 0.971
[5], 0.00051 µM | 0.991
[5], 0.00152 µM | 0.982
[5], 0.00457 µM | 0.938
[5], 0.01372 µM | 0.931
[5], 0.04115 µM | 0.923
[5], 0.1235 µM | 0.883
[5], 0.3704 µM | 0.825
[5], 1.111 µM | 0.166
[5], 3.333 µM | 0.0737
[5], 10 µM | 0.0525
[6], 0.00017 µM | 1.06
[6], 0.00051 µM | 1.06
[6], 0.00152 µM | 1.07
[6], 0.00457 µM | 1.09
[6], 0.01372 µM | 1.09
[6], 0.04115 µM | 1.05
[6], 0.1235 µM | 0.989
[6], 0.3704 µM | 0.731
[6], 1.111 µM | 0.46
[6], 3.333 µM | 0.415
[6], 10 µM | 0.42
[7], 0.00017 µM | 0.994
[7], 0.00051 µM | 0.969
[7], 0.00152 µM | 0.931
[7], 0.00457 µM | 0.985
[7], 0.01372 µM | 0.987
[7], 0.04115 µM | 0.966
[7], 0.1235 µM | 0.898
[7], 0.3704 µM | 0.266
[7], 1.111 µM | 0.0642
[7], 3.333 µM | 0.0543
[7], 10 µM | 0.0611
[8], 0.00017 µM | 0.981
[8], 0.00051 µM | 0.972
[8], 0.00152 µM | 0.987
[8], 0.00457 µM | 1.02
[8], 0.01372 µM | 1.02
[8], 0.04115 µM | 0.946
[8], 0.1235 µM | 0.793
[8], 0.3704 µM | 0.564
[8], 1.111 µM | 0.392
[8], 3.333 µM | 0.36
[8], 10 µM | 0.364
[9], 0.00017 µM | 0.918
[9], 0.00051 µM | 0.927
[9], 0.00152 µM | 0.9048
[9], 0.00457 µM | 0.916
[9], 0.01372 µM | 0.883
[9], 0.04115 µM | 0.879
[9], 0.1235 µM | 0.712
[9], 0.3704 µM | 0.411
[9], 1.111 µM | 0.272
[9], 3.333 µM | 0.229
[9], 10 µM | 0.218
[10], 0.00017 µM | 1
[10], 0.00051 µM | 0.978
[10], 0.00152 µM | 0.979
[10], 0.00457 µM | 0.931
[10], 0.01372 µM | 0.93
[10], 0.04115 µM | 0.939
[10], 0.1235 µM | 0.821
[10], 0.3704 µM | 0.375
[10], 1.111 µM | 0.19
[10], 3.333 µM | 0.124
[10], 10 µM | 0.122
[11], 0.00017 µM | 0.955
[11], 0.00051 µM | 0.946
[11], 0.00152 µM | 0.941
[11], 0.00457 µM | 0.92
[11], 0.01372 µM | 0.833
[11], 0.04115 µM | 0.755
[11], 0.1235 µM | 0.676
[11], 0.3704 µM | 0.294
[11], 1.111 µM | 0.0535
[11], 3.333 µM | 0.0115
[11], 10 µM | 0.00107
[12], 0.00017 µM | 0.978
[12], 0.00051 µM | 0.943
[12], 0.00152 µM | 0.974
[12], 0.00457 µM | 0.978
[12], 0.01372 µM | 0.958
[12], 0.04115 µM | 0.945
[12], 0.1235 µM | 0.917
[12], 0.3704 µM | 0.668
[12], 1.111 µM | 0.372
[12], 3.333 µM | 0.269
[12], 10 µM | 0.181

Cc1ccc(C(=O)OCc2ccc([C@@H](CN)C(=O)Nc3ccc4cnccc4c3)cc2)c(C)c1 [Netarsudil]
Conditions | relative viability
[1], 0.00017 µM | 0.956
[1], 0.00051 µM | 0.985
[1], 0.00152 µM | 0.977
[1], 0.00457 µM | 0.996
[1], 0.01372 µM | 0.9802
[1], 0.04115 µM | 0.957
[1], 0.1235 µM | 0.968
[1], 0.3704 µM | 0.973
[1], 1.111 µM | 0.941
[1], 3.333 µM | 0.946
[1], 10 µM | 0.00503
[2], 0.00017 µM | 1.03
[2], 0.00051 µM | 1.02
[2], 0.00152 µM | 1.043
[2], 0.00457 µM | 0.994
[2], 0.01372 µM | 1.03
[2], 0.04115 µM | 1.01
[2], 0.1235 µM | 1.03
[2], 0.3704 µM | 1.04
[2], 1.111 µM | 1.03
[2], 3.333 µM | 1.02
[2], 10 µM | 0.0118
[3], 0.00017 µM | 1.06
[3], 0.00051 µM | 1.07
[3], 0.00152 µM | 1.05
[3], 0.00457 µM | 1.05
[3], 0.01372 µM | 1.01
[3], 0.04115 µM | 1.03
[3], 0.1235 µM | 0.903
[3], 0.3704 µM | 0.768
[3], 1.111 µM | 0.686
[3], 3.333 µM | 0.541
[3], 10 µM | 0.0141
[4], 0.00017 µM | 0.89
[4], 0.00051 µM | 0.901
[4], 0.00152 µM | 0.892
[4], 0.00457 µM | 0.905
[4], 0.01372 µM | 0.921
[4], 0.04115 µM | 0.884
[4], 0.1235 µM | 0.85
[4], 0.3704 µM | 0.775
[4], 1.111 µM | 0.672
[4], 3.333 µM | 0.402
[4], 10 µM | 0.00233
[5], 0.00017 µM | 0.995
[5], 0.00051 µM | 0.98
[5], 0.00152 µM | 0.971
[5], 0.00457 µM | 0.9831
[5], 0.01372 µM | 0.976
[5], 0.04115 µM | 1.02
[5], 0.1235 µM | 1.015
[5], 0.3704 µM | 1.035
[5], 1.111 µM | 1.01
[5], 3.333 µM | 0.677
[5], 10 µM | 0.0137
[6], 0.00017 µM | 1.09
[6], 0.00051 µM | 1.1
[6], 0.00152 µM | 1.12
[6], 0.00457 µM | 1.11
[6], 0.01372 µM | 1.1
[6], 0.04115 µM | 1.14
[6], 0.1235 µM | 1.13
[6], 0.3704 µM | 1.15
[6], 1.111 µM | 1.15
[6], 3.333 µM | 0.976
[6], 10 µM | 0.0128
[7], 0.00017 µM | 1.01
[7], 0.00051 µM | 0.999
[7], 0.00152 µM | 1.04
[7], 0.00457 µM | 1.04
[7], 0.01372 µM | 1.03
[7], 0.04115 µM | 1.04
[7], 0.1235 µM | 1.03
[7], 0.3704 µM | 1.04
[7], 1.111 µM | 1.04
[7], 3.333 µM | 0.761
[7], 10 µM | 0.0124
[8], 0.00017 µM | 1.03
[8], 0.00051 µM | 1.05
[8], 0.00152 µM | 1.02
[8], 0.00457 µM | 1
[8], 0.01372 µM | 1.043
[8], 0.04115 µM | 1.03
[8], 0.1235 µM | 1.07
[8], 0.3704 µM | 0.989
[8], 1.111 µM | 0.799
[8], 3.333 µM | 0.574
[8], 10 µM | 0.0101
[9], 0.00017 µM | 0.939
[9], 0.00051 µM | 0.945
[9], 0.00152 µM | 0.946
[9], 0.00457 µM | 0.944
[9], 0.01372 µM | 0.926
[9], 0.04115 µM | 0.946
[9], 0.1235 µM | 0.898
[9], 0.3704 µM | 0.7532
[9], 1.111 µM | 0.628
[9], 3.333 µM | 0.553
[9], 10 µM | 0.0095
[10], 0.00017 µM | 1.06
[10], 0.00051 µM | 1.03
[10], 0.00152 µM | 1.03
[10], 0.00457 µM | 1.04
[10], 0.01372 µM | 1.05
[10], 0.04115 µM | 1.032
[10], 0.1235 µM | 0.98
[10], 0.3704 µM | 0.897
[10], 1.111 µM | 0.841
[10], 3.333 µM | 0.749
[10], 10 µM | 0.0152
[11], 0.00017 µM | 0.953
[11], 0.00051 µM | 0.962
[11], 0.00152 µM | 0.952
[11], 0.00457 µM | 0.953
[11], 0.01372 µM | 0.923
[11], 0.04115 µM | 0.874
[11], 0.1235 µM | 0.828
[11], 0.3704 µM | 0.756
[11], 1.111 µM | 0.691
[11], 3.333 µM | 0.636
[11], 10 µM | -0.0088
[12], 0.00017 µM | 1.02
[12], 0.00051 µM | 1
[12], 0.00152 µM | 0.998
[12], 0.00457 µM | 1.02
[12], 0.01372 µM | 1.01
[12], 0.04115 µM | 0.991
[12], 0.1235 µM | 0.99
[12], 0.3704 µM | 0.998
[12], 1.111 µM | 1.03
[12], 3.333 µM | 1.03
[12], 10 µM | 0.659
